Molecular target: T1, Vitamin D3 receptor (Homo sapiens, UniProt P11473)
T1 sequence (P11473 whole entry): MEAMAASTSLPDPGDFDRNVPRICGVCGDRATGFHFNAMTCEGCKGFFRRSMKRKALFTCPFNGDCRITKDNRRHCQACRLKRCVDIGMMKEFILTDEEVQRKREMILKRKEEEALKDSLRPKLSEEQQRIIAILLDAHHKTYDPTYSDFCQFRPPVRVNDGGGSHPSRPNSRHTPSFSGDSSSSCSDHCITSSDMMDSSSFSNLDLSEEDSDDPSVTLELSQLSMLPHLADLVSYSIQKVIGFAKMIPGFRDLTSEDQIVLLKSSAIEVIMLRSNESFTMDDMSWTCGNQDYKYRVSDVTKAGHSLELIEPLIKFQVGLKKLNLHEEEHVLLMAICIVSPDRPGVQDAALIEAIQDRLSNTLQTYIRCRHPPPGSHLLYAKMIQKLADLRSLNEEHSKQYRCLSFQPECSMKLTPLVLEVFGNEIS
Assay: Activity at human VDR expressed in human HOS cells transfected with pGL3-hOc, pCDNA-hVDR and phRL-TK assessed as assessed as transcriptional activation measured 24 hrs post […] by luciferase reporter gene assay
Type: cell-based

Compound | EC50
CCC(CC)(c1ccc(OC[C@H](O)C(C)(C)C)c(C)c1)c1ccc(OC(CCO)CCO)c(C)c1 | 19.4 nM
CCC(CC)(c1ccc(OCC(CO)CO)c(C)c1)c1ccc(OC[C@H](O)C(C)(C)C)c(C)c1 | 1.11 nM
CCC(CC)(c1ccc(OC[C@H](O)C(C)(C)C)c(C)c1)c1ccc(O[C@@H](CO)CCO)c(C)c1 | 0.06 nM
CCC(CC)(c1ccc(OC[C@H](O)C(C)(C)C)c(C)c1)c1ccc(O[C@H](CO)CCO)c(C)c1 | 1.29 nM

Second part, the compound after the results:

EC50 | Compound
0.92 nM | CCC(CC)(c1ccc(OC[C@H](O)C(C)(C)C)c(C)c1)c1ccc(O[C@@H](CO)[C@@H](O)CO)c(C)c1
1.25 nM | CCC(CC)(c1ccc(OC[C@H](O)C(C)(C)C)c(C)c1)c1ccc(O[C@H](CO)[C@H](O)CO)c(C)c1

Reference: ChEMBL document CHEMBL1833851, “Design, synthesis and X-ray crystallographic study of new nonsecosteroidal vitamin D receptor ligands” (Bioorg Med Chem Lett, 2011)
